These results are taken from patent US9573972B2, “Nurotoxic sterol glycosides” (priority 2008, dated 2017).

The structures appear in SMILES notation. Entries after “also recorded” stand apart in the source; their conditions may differ.

The subject of this data set is Phosphorylated tau aggregates. Nature of the data set: Tau immunohistochemistry. The class given is in vivo, mouse. Further details: key to Phosphorylated tau aggregates: − = not present; + = present. Particulars: for Phosphorylated tau aggregates: SG-fed. On the procedure: Slide-mounted lumbar and thoracic spinal cord and brain sections were first rinsed for 45 minutes in 3 changes of PBS then quenched in 3% H2O2 in PBST (PBS+0.5% Triton X-100) for 10 minutes. The slides were rinsed for 4 minutes in 2 changes of PBST. The MOM mouse Ig blocking reagent was prepared as per the manufacturer's instructions. Two drops of mouse Ig stock solution was added to 2.5 mL of PBS. The sections were incubated with this solution for 1 hour at RT. Following this step, sections were rinsed for 4 minutes in 2 changes of PBST and incubated (5 minutes) with the MOM diluent solution prepared by adding 600 V1 of MOM protein concentrate to 7.5 mL of PBS. The diluent was tipped off the slides and replaced by a solution comprised of primary phospho-Tau antibody diluted at 1:100 in the diluent solution prepared in the same manner as discussed above. The sections were incubated for 60 minutes at RT. Subsequently, sections were rinsed for 4 minutes in 2 changes of PBST and incubated for 10 minutes in the MOM biotinylated anti-mouse IgG reagent (10 V1 of MOM biotinylated anti-mouse IgG diluted in 2.5 mL of the MOM diluents). The sections were then rinsed in PBST and incubated (1 hour at RT) with the secondary antibody prepared by combining one drop of secondary antibody (biotinylated goat-anti-rabbit IgG) from the Vectastain ABC Elite kit (Vector Laboratories, Burlingame, Calif., USA) was combined with 3 drops of serum stock to 10 mL of PBST. At 30 minutes after start of slide incubation with the secondary antibody, an immunoperoxidase solution was prepared by adding 2 drops of reagent A and 2 drops of reagent B (Vectastain Elite ABC kit, Vector Laboratories, Burlingame, Calif., USA) to 2.5 mL of PBST. After one hour incubation of the slides with the secondary antibody solution, the slides were rinsed for 4 minutes in two changes of PBST and incubated for 30 minutes in the working immunoperoxidase solution. Next, the sections were rinsed for 4 minutes in 2 changes of PBST. During the rinses, the DAB liquid substrate was prepared for the next step. As per manufacturer's instructions, 2 drops of buffer stock solution, 5 mL of ddH2O, 4 drops of DAB stock solution, and 2 drops of hydrogen peroxide solution were combined. The slides were incubated for 3 minutes at RT with this DAB solution and monitored for color development. The sections were rinsed for 5 minutes in ddH2O to stop the reaction and rid slides of DAB substrate. A methyl green nuclear counterstain was used to elucidate nuclei and motor neuron somata. The 0.5% methyl green counterstain was prepared in the following manner: First, the sodium acetate buffer was prepared with 1.36 g of sodium acetate trihydrate to 100 mL of distilled water adjusted to pH 4.2 using glacial acetic acid. For every 100 mL of buffer, 0.5 g of methyl green (ethyl violet, Sigma-Aldrich, Oakville, ON, Canada) was added to make a 0.5% methyl green solution. Slide-mounted sections were stained in the above methyl green solution for 5 minutes at RT. Sections were rinsed in distilled water, until the water became clear. […]
The numbers of immunoreactive somata or inclusions were counted across the ventral horn of the spinal cord, across brain hemispheres, or per dorsal or ventral root with the 40× objective lens in a 600 μm/600 μm area within region perimeters defined by a mouse brain atlas (2001). […]

As to `CC[C@H](/C=C/[C@@H](C)[C@H]1CC[C@H]2[C@@H]3CC=C4C[C@@H](O[C@@H]5O[C@H](CO)[C@@H](O)[C@H](O)[C@H]5O)CC[C@]4(C)[C@H]3CC[C@]12C)C(C)C` [SG, Stigmasterol β-D-Glucopyranoside], the “Apoptosis of phosphorylated-tau containing cells” value (SG-fed animals at 52 weeks) was “majority of the phosphorylated-tau containing cells were actively undergoing apoptosis”. Also, the Phosphorylated tau aggregates result reads like this: (Time-point 1 (35 wk)) “−”; (Time-point 2 (52 wk)) “+”. Also, the “Phosphorylated tau aggregates, incidence in SG-fed group” value (Time-point 2 (52 wk)) is recorded as 2/8. Under “ventral horn of lumbar spinal cord, SG-fed mice, none in non-treated mice”, the “Accumulation of phosphorylated tau” value is “induced accumulation of phosphorylated tau; also recorded: Phosphorylated Tau aggregates were observed”.
